Entries after “also recorded” stand apart in the source; their conditions may differ. Marks after values point to notes of the source that are not given here.
Legend:
[1] = system: patients with advanced solid tumours; assay: Phase I study of olaparib capsules plus PLD; assay type: in vivo
[2] = Plasma pharmacokinetics of olaparib alone and with PLD; assay type: in vivo, patients; details: for AUC(0-t): olaparib AUC0–10 h, Day 1 alone; for AUC(0-t) / Cmax: mean±s.d.; for Cmax: olaparib Cmax, Day 2+PLD
[3] = ref Fong et al, 2009; cited from earlier work
[4] = continuous dosing, ref Mateo et al, 2013; cited from earlier work
[5] = all olaparib cohorts + PLD 40 mg m^−2, Total (n=44)
[6] = olaparib 50 mg bid 7 day + PLD 40 mg m^−2 (n=3)
[7] = olaparib 100 mg bid 7 day + PLD 40 mg m^−2 (n=3)
[8] = olaparib 100 mg bid 28 day + PLD 40 mg m^−2 (n=4)
[9] = olaparib 200 mg bid 7 day + PLD 40 mg m^−2 (n=3)
[10] = olaparib 200 mg bid 28 day + PLD 40 mg m^−2 (n=7)
[11] = olaparib 400 mg bid 7 day + PLD 40 mg m^−2 (n=12)
[12] = olaparib 400 mg bid 28 day + PLD 40 mg m^−2 (n=12)
[13] = olaparib + PLD, all cohorts (n=2)
[14] = olaparib + PLD, all cohorts, n=44

## O=C(c1cc(Cc2n[nH]c(=O)c3ccccc23)ccc1F)N1CCN(C(=O)C2CC2)CC1 [olaparib]
[1]; [5]
  Anorexia, patients with grade ⩾3 AE: 2 (5) n (%)
  Anorexia, patients with treatment-related AE: 12 (27) n (%)
  Asthenia, patients with grade ⩾3 AE: 1 (2) n (%)
  Asthenia, patients with treatment-related AE: 21 (48) n (%)
  Decreased neutrophil count, patients with grade ⩾3 AE: 9 (20) n (%)
  Decreased neutrophil count, patients with treatment-related AE: 13 (30) n (%)
  Nausea, patients with grade ⩾3 AE: 5 (11) n (%)
  Nausea, patients with treatment-related AE: 28 (64) n (%)
  PPES, patients with grade ⩾3 AE: 1 (2) n (%)
  PPES, patients with treatment-related AE: 11 (25) n (%)
  Stomatitis, patients with grade ⩾3 AE: 7 (16) n (%)
  Stomatitis, patients with treatment-related AE: 32 (73) n (%)
  Vomiting, patients with grade ⩾3 AE: 1 (2) n (%)
  Vomiting, patients with treatment-related AE: 13 (30) n (%)
[1]; [6]
  Asthenia, patients with treatment-related AE: 2 n
  Decreased neutrophil count, patients with grade ⩾3 AE: 2 n
  Decreased neutrophil count, patients with treatment-related AE: 2 n
  Nausea, patients with treatment-related AE: 3 n
  Stomatitis, patients with treatment-related AE: 3 ^b n
[1]; [7]
  Asthenia, patients with treatment-related AE: 1 n
  Decreased neutrophil count, patients with grade ⩾3 AE: 3 n
  Decreased neutrophil count, patients with treatment-related AE: 3 n
  Nausea, patients with grade ⩾3 AE: 1 n
  Nausea, patients with treatment-related AE: 2 n
  Stomatitis, patients with grade ⩾3 AE: 2 ^c n
  Stomatitis, patients with treatment-related AE: 3 n
  Vomiting, patients with treatment-related AE: 1 n
[1]; [8]
  Anorexia, patients with grade ⩾3 AE: 1 n
  Anorexia, patients with treatment-related AE: 1 n
  Asthenia, patients with treatment-related AE: 2 n
  Decreased neutrophil count, patients with grade ⩾3 AE: 1 n
  Decreased neutrophil count, patients with treatment-related AE: 2 n
  Nausea, patients with treatment-related AE: 2 n
  Stomatitis, patients with treatment-related AE: 2 n
[1]; [9]
  Asthenia, patients with treatment-related AE: 2 n
  Decreased neutrophil count, patients with treatment-related AE: 1 n
  Nausea, patients with treatment-related AE: 2 n
  PPES, patients with treatment-related AE: 1 n
  Stomatitis, patients with treatment-related AE: 2 n
[1]; [10]
  Anorexia, patients with grade ⩾3 AE: 1 n
  Anorexia, patients with treatment-related AE: 3 n
  Asthenia, patients with treatment-related AE: 2 n
  Decreased neutrophil count, patients with grade ⩾3 AE: 1 n
  Decreased neutrophil count, patients with treatment-related AE: 1 n
  Nausea, patients with treatment-related AE: 3 n
  PPES, patients with treatment-related AE: 2 n
  Stomatitis, patients with grade ⩾3 AE: 1 n
  Stomatitis, patients with treatment-related AE: 5 n
  Vomiting, patients with treatment-related AE: 3 n
[1]; [11]
  Anorexia, patients with treatment-related AE: 4 n
  Asthenia, patients with grade ⩾3 AE: 1 n
  Asthenia, patients with treatment-related AE: 6 n
  Decreased neutrophil count, patients with grade ⩾3 AE: 1 n
  Decreased neutrophil count, patients with treatment-related AE: 2 n
  Nausea, patients with grade ⩾3 AE: 4 n
  Nausea, patients with treatment-related AE: 8 n
  PPES, patients with treatment-related AE: 4 n
  Stomatitis, patients with grade ⩾3 AE: 2 n
  Stomatitis, patients with treatment-related AE: 6 n
  Vomiting, patients with grade ⩾3 AE: 1 n
  Vomiting, patients with treatment-related AE: 6 n
[1]; [12]
  Anorexia, patients with treatment-related AE: 4 n
  Asthenia, patients with treatment-related AE: 6 n
  Decreased neutrophil count, patients with grade ⩾3 AE: 1 n
  Decreased neutrophil count, patients with treatment-related AE: 2 n
  Nausea, patients with treatment-related AE: 8 n
  PPES, patients with grade ⩾3 AE: 1 n
  PPES, patients with treatment-related AE: 4 n
  Stomatitis, patients with grade ⩾3 AE: 2 n
  Stomatitis, patients with treatment-related AE: 11 n
  Vomiting, patients with treatment-related AE: 3 n
[1]; olaparib + PLD, all cohorts
  patients with alterations in neutrophil count: 30%
[1]; [13]
  Grade ⩾3 haematologic alterations: haemoglobin: 5%
  Grade ⩾3 haematologic alterations: white blood cells: 5%
[1]; olaparib + PLD, all cohorts (n=3)
  Grade ⩾3 haematologic alterations: platelets: 7%
[1]; [14]
  alterations in neutrophil count reported as AEs: 13 n
  overall incidence of CTCAE grade ⩾3 events: 61%
  patients discontinued/withdrawn because of treatment-related AEs: seven
  patients who died during the study: Five
  patients with treatment-related serious AEs: five
[1]; olaparib + PLD, all cohorts, n=44 (12 patients)
  patients with serious AEs: 27%
[1]; olaparib + PLD, 100 mg 28-day, 200 mg 28-day and 400 mg 7-day cohorts
  patients with serious AEs of pneumonitis: three
[1]; up to continuous olaparib 400 mg bid + PLD 40 mg m^−2
  MTD of olaparib with PLD: not reached; also recorded: could not be determined
[2]; human, plasma, oral
  Tmax: 2.1 h
[2]; human, plasma, oral, 50 mg, olaparib 50 mg, n=3
  AUC(0-t): 8700 ± 5800 ng·h/mL
[2]; human, plasma, oral, 400 mg, olaparib 400 mg bid, n=11
  AUC(0-t): 25900 ± 9000 ng·h/mL
[2]; human, plasma, oral, olaparib 50 mg bid
  Cmax: 1400 ± 700 ng/mL
[2]; human, plasma, oral, olaparib 100 mg bid
  Cmax: 2200 ± 1000 ng/mL
[2]; in vivo
  PK interference between olaparib and PLD: No major pharmacokinetic interference; also recorded: minor
[3]
  MTD of olaparib monotherapy (capsule formulation): 400 mg twice daily (bid)
[4]
  recommended dose of the olaparib tablet formulation: 300 mg bid

Reference: article PMC4134498 (British Journal of Cancer, 2014)
